Data reported in ChEMBL document CHEMBL3992552, “Mechanisms of action and structure-activity relationships of cytotoxic flavokawain derivatives” (Bioorg Med Chem, 2017).
Active and inactive are the calls of the source. The calls are words filed in the database; no cut-off is given here.

system: PC-3; test: Cell cycle arrest in human PC3 cells assessed as accumulation at M phase by Hoechst staining based fluorescence assay; format: functional; conditions: not given

SMILES	Activity
COc1cc(OC)c(C(=O)/C=C/c2ccccc2SC)c(OC)c1	Active

system: HCT-116; test: Cytotoxicity against human HCT116 cells assessed as cell survival at 50 uM after 48 hrs by Hoechst 33342 staining based assay relative to control; format: functional; conditions: HCT-116, 48 h, read-out: Survival

SMILES	viability at 50 µM [%]
COc1cc(OC)c(C(=O)/C=C/c2ccccc2SC)c(OC)c1	0

system: MCF7; test: Induction of apoptosis in human MCF7 cells harboring wild-type p53 assessed as increase in late apoptosis at 2 times IC50 after 24 hrs by YoPro/propidium iodide/Hoechst staining based assay; format: functional, cell-based; conditions: not given

SMILES	Activity
COc1cc(OC)c(C(=O)/C=C/c2ccccc2SC)c(OC)c1	Active

system: Caco-2; test: Cell cycle arrest in human Caco2 cells assessed as accumulation at S phase at 25 uM measured after 48 hrs by Hoechst/BrdU staining based fluorescence assay (reference value: […]); format: functional; conditions: not given

SMILES	Activity [%]
COc1cc(OC)c(C(=O)/C=C/c2ccccc2SC)c(OC)c1	2.2

system: HCT-116; test: Cell cycle arrest in human HCT116 cells harboring wild-type p53 assessed as accumulation at S phase at 25 uM measured after 48 hrs by Hoechst/BrdU staining based fluorescence assay (reference value: 68.4%); format: functional; conditions: not given

SMILES	Activity [%]
COc1cc(OC)c(C(=O)/C=C/c2ccccc2SC)c(OC)c1	0.5

system: PC-3; test: Induction of apoptosis in human PC3 cells harboring p53 mutant assessed as upregulation of cyclinB1 after 48 hrs by Hoechst staining based assay; format: functional, cell-based; conditions: not given

SMILES	Activity
COc1cc(OC)c(C(=O)/C=C/c2ccccc2SC)c(OC)c1	Active

system: NCI-H727; test: Cell cycle arrest in human NCI-H727 cells harboring p53 mutant assessed as accumulation at S phase at 10 uM measured after 48 hrs by Hoechst/BrdU staining based fluorescence assay (reference value: 40.3%); format: functional; conditions: not given

SMILES	Activity [%]
COc1cc(OC)c(C(=O)/C=C/c2ccccc2SC)c(OC)c1	35

system: HaCaT; test: Cytotoxicity against human HaCaT cells assessed as cell survival at 50 uM after 48 hrs by Hoechst 33342 staining based assay relative to control; format: functional; conditions: read-out: Survival

SMILES	viability at 50 µM [%]
COc1cc(OC)c(C(=O)/C=C/c2ccccc2SC)c(OC)c1	6

system: PC-3; test: Induction of apoptosis in human PC3 cells harboring p53 mutant assessed as increase in late apoptosis at 2 times IC50 after 48 hrs by YoPro/propidium iodide/Hoechst staining based assay; format: functional, cell-based; conditions: not given

SMILES	Activity
COc1cc(OC)c(C(=O)/C=C/c2ccccc2SC)c(OC)c1	Active

system: not listed separately; test: Selectivity index, ratio of IC50 for human fibroblasts to IC50 for human Caco2 cells; conditions: not given

SMILES	Ratio IC50
COc1cc(OC)c(C(=O)/C=C/c2ccccc2SC)c(OC)c1	3.6

system: Huh-7; test: Cell cycle arrest in human HuH7 cells assessed as mitotic index at 10 uM measured after 48 hrs by Hoechst staining based fluorescence assay (reference value: 2.2); format: functional; conditions: not given

SMILES	Activity_index
COc1cc(OC)c(C(=O)/C=C/c2ccccc2SC)c(OC)c1	6.5

system: NCI-H727; test: Cell cycle arrest in human NCI-H727 cells harboring p53 mutant assessed as accumulation at S phase at 25 uM measured after 48 hrs by Hoechst/BrdU staining based fluorescence assay (reference value: 40.3%); format: functional; conditions: not given

SMILES	Activity [%]
COc1cc(OC)c(C(=O)/C=C/c2ccccc2SC)c(OC)c1	3

system: MDA-MB-231; test: Cytotoxicity against human MDA-MB-231 cells assessed as cell viability after 48 hrs by Hoechst 33342 staining based assay; format: functional; conditions: MDA-MB-231, 48 h

SMILES	IC50 [µM]
COc1cc(OC)c(C(=O)/C=C/c2ccccc2SC)c(OC)c1	9.9

system: MDA-MB-231; test: Cytotoxicity against human MDA-MB-231 cells assessed as cell survival at 50 uM after 48 hrs by Hoechst 33342 staining based assay relative to control; format: functional; conditions: MDA-MB-231, 48 h, read-out: Survival

SMILES	viability at 50 µM [%]
COc1cc(OC)c(C(=O)/C=C/c2ccccc2SC)c(OC)c1	36

system: not listed separately; test: Selectivity index, ratio of IC50 for human fibroblasts to IC50 for human MDA-MB-231 cells; conditions: not given

SMILES	Ratio IC50
COc1cc(OC)c(C(=O)/C=C/c2ccccc2SC)c(OC)c1	3.2

system: not listed separately; test: Selectivity index, ratio of IC50 for human fibroblasts to IC50 for human HCT116 cells; conditions: not given

SMILES	Ratio IC50
COc1cc(OC)c(C(=O)/C=C/c2ccccc2SC)c(OC)c1	4.7

system: MDA-MB-231; test: Induction of apoptosis in human MDA-MB-231 cells harboring p53 mutant assessed as increase in late apoptosis at 2 times IC50 after 24 hrs by YoPro/propidium iodide/Hoechst staining based assay; format: functional, cell-based; conditions: not given

SMILES	Activity
COc1cc(OC)c(C(=O)/C=C/c2ccccc2SC)c(OC)c1	Active

system: Huh-7; test: Cell cycle arrest in human HuH7 cells assessed as mitotic index at 25 uM measured after 48 hrs by Hoechst staining based fluorescence assay (reference value: 2.2); format: functional; conditions: not given

SMILES	Activity_index
COc1cc(OC)c(C(=O)/C=C/c2ccccc2SC)c(OC)c1	0.4

system: MDA-MB-231; test: Cell cycle arrest in human MDA-MB-231 cells harboring p53 mutant assessed as mitotic index at 10 uM measured after 48 hrs by Hoechst staining based fluorescence assay (reference value: 2.1); format: functional; conditions: not given

SMILES	Activity_index
COc1cc(OC)c(C(=O)/C=C/c2ccccc2SC)c(OC)c1	18

system: Caco-2; test: Cytotoxicity against human Caco2 cells assessed as cell survival at 50 uM after 48 hrs by Hoechst 33342 staining based assay relative to control; format: functional; conditions: Caco-2, 48 h, read-out: Survival

SMILES	viability at 50 µM [%]
COc1cc(OC)c(C(=O)/C=C/c2ccccc2SC)c(OC)c1	17

system: not listed separately; test: Selectivity index, ratio of IC50 for human fibroblasts to IC50 for human MCF7 cells; conditions: not given

SMILES	Ratio IC50
COc1cc(OC)c(C(=O)/C=C/c2ccccc2SC)c(OC)c1	3.4

system: HaCaT; test: Cell cycle arrest in human HaCaT cells harboring […] p53 assessed as mitotic index at 10 uM measured after 48 hrs by Hoechst staining based fluorescence assay (reference value: 2.6); format: functional; conditions: not given

SMILES	Activity_index
COc1cc(OC)c(C(=O)/C=C/c2ccccc2SC)c(OC)c1	18.9

system: RL; test: Cytotoxicity against human RL assessed as cell viability after 48 hrs by Hoechst 33342 staining based assay; format: functional; conditions: not given

SMILES	IC50 [µM]
COc1cc(OC)c(C(=O)/C=C/c2ccccc2SC)c(OC)c1	8.3

system: HCT-116; test: Cytotoxicity against human HCT116 cells assessed as cell viability after 48 hrs by Hoechst 33342 staining based assay; format: functional; conditions: HCT-116, 48 h

SMILES	IC50 [µM]
COc1cc(OC)c(C(=O)/C=C/c2ccccc2SC)c(OC)c1	6.8

system: MDA-MB-231; test: Cell cycle arrest in human MDA-MB-231 cells harboring p53 mutant assessed as accumulation at S phase at 10 uM measured after 48 hrs by Hoechst/BrdU staining based fluorescence assay (reference value: 42.2%); format: functional; conditions: not given

SMILES	Activity [%]
COc1cc(OC)c(C(=O)/C=C/c2ccccc2SC)c(OC)c1	48

system: PC-3; test: Cell cycle arrest in human PC3 cells harboring p53 mutant assessed as accumulation at S phase at 10 uM measured after 48 hrs by Hoechst/BrdU staining based fluorescence assay (reference value: 40.8%); format: functional; conditions: not given

SMILES	Activity [%]
COc1cc(OC)c(C(=O)/C=C/c2ccccc2SC)c(OC)c1	30

system: HaCaT; test: Cell cycle arrest in human HaCaT cells harboring […] p53 assessed as accumulation at S phase at 25 uM measured after 48 hrs by Hoechst/BrdU staining based fluorescence assay (reference value: 52.3%); format: functional; conditions: not given

SMILES	Activity [%]
COc1cc(OC)c(C(=O)/C=C/c2ccccc2SC)c(OC)c1	0

system: MDA-MB-231; test: Cell cycle arrest in human MDA-MB-231 cells harboring p53 mutant assessed as accumulation at S phase at 25 uM measured after 48 hrs by Hoechst/BrdU staining based fluorescence assay (reference value: 42.2%); format: functional; conditions: not given

SMILES	Activity [%]
COc1cc(OC)c(C(=O)/C=C/c2ccccc2SC)c(OC)c1	16

system: not listed separately; test: Selectivity index, ratio of IC50 for human fibroblasts to IC50 for human HuH7 cells; conditions: not given

SMILES	Ratio IC50
COc1cc(OC)c(C(=O)/C=C/c2ccccc2SC)c(OC)c1	2.3

system: HCT-116; test: Cell cycle arrest in human HCT116 cells harboring wild-type p53 assessed as mitotic index at 25 uM measured after 48 hrs by Hoechst staining based fluorescence assay (reference value: 2.3); format: functional; conditions: not given

SMILES	Activity_index
COc1cc(OC)c(C(=O)/C=C/c2ccccc2SC)c(OC)c1	0.4

system: HaCaT; test: Cell cycle arrest in human HaCaT cells harboring […] p53 assessed as accumulation at S phase at 10 uM measured after 48 hrs by Hoechst/BrdU staining based fluorescence assay (reference value: 52.3%); format: functional; conditions: not given

SMILES	Activity [%]
COc1cc(OC)c(C(=O)/C=C/c2ccccc2SC)c(OC)c1	24

system: MCF7; test: Induction of apoptosis in human MCF7 cells harboring wild-type p53 assessed as increase in early apoptosis at 2 times IC50 after 24 hrs by YoPro/propidium iodide/Hoechst staining based assay; format: functional, cell-based; conditions: not given

SMILES	Activity
COc1cc(OC)c(C(=O)/C=C/c2ccccc2SC)c(OC)c1	Active

system: not listed separately; test: Selectivity index, ratio of IC50 for human fibroblasts to IC50 for human RL cells; conditions: not given

SMILES	Ratio IC50
COc1cc(OC)c(C(=O)/C=C/c2ccccc2SC)c(OC)c1	3.8

system: PC-3; test: Cell cycle arrest in human PC3 cells harboring p53 mutant assessed as accumulation at S phase at 25 uM measured after 48 hrs by Hoechst/BrdU staining based fluorescence assay (reference value: 40.8%); format: functional; conditions: not given

SMILES	Activity [%]
COc1cc(OC)c(C(=O)/C=C/c2ccccc2SC)c(OC)c1	0

system: MDA-MB-231; test: Cell cycle arrest in human MDA-MB-231 cells assessed as accumulation at M phase by Hoechst staining based fluorescence assay; format: functional; conditions: not given

SMILES	Activity
COc1cc(OC)c(C(=O)/C=C/c2ccccc2SC)c(OC)c1	Active

system: HCT-116; test: Induction of apoptosis in human HCT116 cells harboring wild-type p53 assessed as upregulation of p21 measured after 48 hrs by Hoechst staining based fluorescence assay; format: functional, cell-based; conditions: not given

SMILES	Activity
COc1cc(OC)c(C(=O)/C=C/c2ccccc2SC)c(OC)c1	Active

system: HaCaT; test: Cytotoxicity against human HaCaT cells assessed as cell viability after 48 hrs by Hoechst 33342 staining based assay; format: functional; conditions: not given

SMILES	IC50 [µM]
COc1cc(OC)c(C(=O)/C=C/c2ccccc2SC)c(OC)c1	7.7

system: NCI-H727; test: Cytotoxicity against human NCI-H727 cells assessed as cell survival at 50 uM after 48 hrs by Hoechst 33342 staining based assay relative to control; format: functional; conditions: NCI-H727, 48 h, read-out: Survival

SMILES	viability at 50 µM [%]
COc1cc(OC)c(C(=O)/C=C/c2ccccc2SC)c(OC)c1	1
